Results on one compound are retold here after paper PMC11355573, “A New Renieramycin T Right-Half Analog as a Small Molecule Degrader of STAT3” (Marine Drugs, 2024).

Experiment [1] concerns the target T1, STAT3 (Homo sapiens, UniProt P40763).
T1 construct: endogenous in cells; host or cells: NCI-H460 (ATCC HTB-177)
Nature of the experiment: STAT3 Western blot. Format: cell-based. As to conditions: H460, 1 μM and 2.5 μM, 24 h (p < 0.05). The protocol:
These findings imply that DH_31 exerts its anticancer effects by modulating the expression and/or accumulation of STAT3.
Western blot analysis was performed to detect and quantify specific proteins in a sample. H460 cells (4.0 × 10^5 cells per well) were seeded in 6 well plates. Following overnight incubation, the cells were treated with different concentrations of DH_31 (0–2.5 μM) for 24 h at 37 °C. After treatment, the cell lysates were isolated using a 1 × RIPA buffer containing a protease inhibitor cocktail for 45 min at 4 °C. The protein content was determined using the BCA protein assay kit. For the Western blot assay, an equal amount of the denatured proteins from cell lysates was separated by electrophoresis on 10 or 12% SDS-PAGE and transferred to 0.2 µm polyvinylidene difluoride (PVDF) membranes (Bio-Rad Laboratories, Hercules, CA, USA). After the membranes were blocked with 5% skim milk, they were then incubated overnight with specific primary antibodies at 4 °C. Subsequently, the membranes were incubated with HRP-conjugated secondary antibodies for 1 h at room temperature. Protein bands were visualized using SuperSignal^TM West Pico PLUS Chemiluminescent Substrate. The protein intensity was analyzed using ImageJ™ software (Image J 1.52a, Rasband, W., National Institutes of Health, Bethesda, MD, USA).
Background: In western blotting, separated proteins are transferred to a membrane and probed.

Experiment [2] deals with H292 cells. Format: cell-based. The settings on record: for apoptosis: 24 h. As to the method:
(§1) Apoptosis is a crucial mechanism of cell death induced by anticancer drugs. We further analyzed the apoptosis induction effect of the potent small molecules, namely DH_28, DH_30, and DH_31. Nuclear morphology detected by the staining with nucleus-specific fluorescence dye Hoechst 33342 and cell-impermeable PI for necrotic detection was performed. Morphologic changes by means of condensed and/or fragmented nuclei were observed after 24 h of treatment (Figure 2D). […] Therefore, DH_31 was selected for further experiments.
(§2) Figure 2 The effect of RT right-half analogs on cytotoxicity in NSCLC and human normal lung epithelial (BEAS-2B) cell lines and apoptotic cell death in NSCLC cells. (A) NSCLC H292 and H460 cells were treated with derivatives of RT right-half analogs for 24 h and analyzed using MTT assay to assess cytotoxicity. (B) IC50 values for H292 and H460 cell lines were calculated. (C) BEAS-2B cells were treated with DH_28, DH_30, DH_31, and TM-(−)-18 for 24 h. The cytotoxic effects were evaluated using an MTT assay, and the IC50 values for BEAS-2B cells were determined. (D) H292 and H460 cells were seeded and treated with 0–10 μM of DH_28, DH_30, and DH_31 for 24 h. Hoechst 33342 and PI were used to stain the cell nuclei. Images were obtained under a fluorescence microscope. (E) The percentages of cell death were calculated based on the stained images in H292 and H460 cells. Data represent the mean ± SD (n = 3). *, **, and *** indicate a statistically significant difference between the treated and the untreated cells at p < 0.05, p < 0.01, and p < 0.001, respectively. TEXT PRINTED IN THE PICTURE: (B) DH_17: IC50 ± SD (μM) H292: 20.50 ± 3.69; IC50 ± SD (μM) H460: > 100 | (B) DH_20: IC50 ± SD (μM) H292: 21.46 ± 3.77; IC50 ± SD (μM) H460: > 100 | (B) DH_23: IC50 ± SD (μM) H292: 17.50 ± 3.08; IC50 ± SD (μM) H460: > 100 | (B) DH_26: IC50 ± SD (μM) H292: 7.18 ± 2.39; IC50 ± SD (μM) H460: > 100 | (B) DH_28: IC50 ± SD (μM) H292: 9.56 ± 1.87; IC50 ± SD (μM) H460: 11.48 ± 1.87 | (B) DH_30: IC50 ± SD (μM) H292: 7.80 ± 2.30; IC50 ± SD (μM) H460: 4.51 ± 0.78 | (B) DH_31: IC50 ± SD (μM) H292: 5.54 ± 1.04; IC50 ± SD (μM) H460: 2.90 ± 0.58 | (B) TM-(–)-18: IC50 ± SD (μM) H292: > 100; IC50 ± SD (μM) H460: 7.89 ± 1.27 | (C) DH_28: BEAS-2B IC50 ± SD (μM): 16.46 ± 2.11 | (C) DH_30: BEAS-2B IC50 ± SD (μM): 5.50 ± 1.70 | (C) DH_31: BEAS-2B IC50 ± SD (μM): 6.51 ± 1.40 | (C) TM-(–)-18: BEAS-2B IC50 ± SD (μM): 7.25 ± 1.25 DOUBTS OF THE COPYIST ABOUT THIS PICTURE: Panel C, DH_28, IC50: small print, 16.46 ± 2.11 is the best reading; 6 could be 8 / Panel C, DH_30, IC50: small print, 5.50 ± 1.70 is the best reading; 5 could be 6 / Panel C, DH_31, IC50: small print, 6.51 ± 1.40 is the best reading; 6 could be 8 or 5 / Panel C, TM-(–)-18, IC50: small print, 7.25 ± 1.25 is the best reading

Experiment [3] deals with H460 cells. It counts as cell-based. The settings on record: 24 h. The protocol: as §1, §2
Experiment [4] deals with H460 cells. Nature of the experiment: Wound healing assay (migration). As to conditions: H460, 1 and 2.5 μM, at 48 h and 72 h, vs untreated cells. It counts as cell-based, human. As to the method: Wound healing assay was conducted to assess the effects of DH_31 on migration. H292 and H460 cells (4.0–4.2 × 10^4 cells per well) were seeded in 96-well plates. Following overnight incubation, wounds were created by scraping the monolayer cells with a 10 μL pipette tip, and non-adherent cells were washed off with PBS. The cells were treated with different concentrations of DH_31 (0–2.5 μM) in the growth medium containing 1% FBS for 72 h at 37 °C. […] The scratched area was analyzed by using ImageJ™ software (Image J 1.52a, Rasband, W., National Institutes of Health, Bethesda, MD, USA). Cell migration was determined by the rate of cells moving towards the scratched area.

Where two headings read alike, the source gives them in different places.

T1 sequence (P40763 whole entry): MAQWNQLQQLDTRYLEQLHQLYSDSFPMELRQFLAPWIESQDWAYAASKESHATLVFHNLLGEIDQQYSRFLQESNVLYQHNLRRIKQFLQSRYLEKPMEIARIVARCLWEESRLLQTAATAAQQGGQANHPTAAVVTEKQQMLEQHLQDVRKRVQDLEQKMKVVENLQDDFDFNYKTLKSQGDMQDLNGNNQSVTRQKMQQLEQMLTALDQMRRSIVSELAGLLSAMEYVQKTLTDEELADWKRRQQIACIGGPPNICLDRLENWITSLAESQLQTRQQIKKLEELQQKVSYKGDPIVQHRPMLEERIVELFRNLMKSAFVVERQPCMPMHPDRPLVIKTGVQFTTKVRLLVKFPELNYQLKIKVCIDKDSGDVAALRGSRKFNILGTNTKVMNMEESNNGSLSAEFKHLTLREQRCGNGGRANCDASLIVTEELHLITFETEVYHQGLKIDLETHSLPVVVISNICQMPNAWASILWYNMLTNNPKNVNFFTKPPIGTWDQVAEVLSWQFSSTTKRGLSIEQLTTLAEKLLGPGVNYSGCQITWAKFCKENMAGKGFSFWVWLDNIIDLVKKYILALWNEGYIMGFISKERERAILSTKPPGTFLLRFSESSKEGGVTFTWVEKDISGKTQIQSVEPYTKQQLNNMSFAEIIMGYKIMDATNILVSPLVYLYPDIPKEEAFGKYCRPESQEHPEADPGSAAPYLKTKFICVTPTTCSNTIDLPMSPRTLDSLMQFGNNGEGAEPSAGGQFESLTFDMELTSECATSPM

Regarding `COc1c(C)cc2c(c1O)[C@@H]1CN(Cc3ccc4ccccc4c3)[C@@H](C#N)[C@H](C2)N1C` [DH_31, (1R,4R,5S)-10-hydroxy-9-methoxy-8,11-dimethyl-3-(naphthalen-2-ylmethyl)-1,2,3,4,5,6-hexahydro-1,5-epiminobenzo[d]azocine-4-carbonitrile], the “STAT3 protein level (Western blot)” value in experiment [1] is reported as “significant decrease”. The apoptosis result in experiment [2] (H292, 1 µM) is recorded as “significant apoptosis”; in experiment [2] (H292, 10 µM) it was “significant apoptosis”. Besides, the necrosis result in experiment [2] (H292, 10 µM, 24 h (p < 0.001)) is “Necrosis was detected”; in experiment [3] (H460, 1 µM) it was “did not cause significant necrosis”; in experiment [3] (H460, 10 µM) it was “did not cause significant necrosis”. Moreover, the apoptotic cell death result in experiment [3] (H460, 10 µM) was “significant apoptotic cell death”. In addition, the “cell migration across the wound space” value in experiment [4] was “significantly decreased”.
